Activity calls are given as the source filed them.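 Rule for the calls: active = maximal percent inhibition of the deubiquitinase OTUD3 of at least 30% across the tested doses; inactive = the rest.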
Molecular target: OTU domain-containing protein 3 (Homo sapiens) (UniProt Q5T2D3)
Test: Validation of screening hits, potency titration, in vitro enzymatic, OTU domain-containing protein 3 DUB inhibitors (AID 1645868)
Conditions: purified OTUD3, ubiquitin-rhodamine cleavage fluorescence, 2 h

OTU domain-containing protein 3 (Homo sapiens), sequence (Q5T2D3 whole entry, looked up, the tested form may be a part): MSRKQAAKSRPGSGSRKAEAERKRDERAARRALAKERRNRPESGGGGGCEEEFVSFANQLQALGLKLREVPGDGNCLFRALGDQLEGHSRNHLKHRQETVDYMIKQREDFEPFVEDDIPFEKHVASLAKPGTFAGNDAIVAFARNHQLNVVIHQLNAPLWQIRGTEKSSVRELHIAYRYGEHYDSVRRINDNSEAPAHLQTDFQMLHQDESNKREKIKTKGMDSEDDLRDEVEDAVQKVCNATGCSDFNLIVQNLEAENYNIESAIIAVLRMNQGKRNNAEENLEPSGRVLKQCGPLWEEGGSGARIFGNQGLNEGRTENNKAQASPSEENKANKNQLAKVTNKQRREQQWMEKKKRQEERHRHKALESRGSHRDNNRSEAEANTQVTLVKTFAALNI

Structure (SMILES) | IC50
Nc1c(-c2nc(-c3ccc4c(c3)OCO4)cs2)nnn1-c1ccccc1 | > 50 µM (inactive)
O=C(NC1CCN(Cc2ccccc2)CC1)c1[nH]nc2c1CCc1ccccc1-2 | > 50 µM (inactive)
COc1ccc(NC(=O)c2[nH]nc3c2COc2ccccc2-3)c(OC)c1 | 19.1 µM
O=c1[nH]c(C2CCN(S(=O)(=O)c3ccc(S(=O)(=O)NC4CCCCC4)cc3)CC2)nc2c1nnn2Cc1c(Cl)cccc1Cl | 18.5 µM
COc1cccc2cc(C(=O)Nc3ccc4c(c3)OCCO4)oc12 | > 50 µM (inactive)
CCn1c(SCC(=O)c2c(N)n(CC(C)C)c(=O)n(C)c2=O)nnc1-c1ccccc1 | 25.6 µM
CCN(CC)c1nc(F)c2c(c1F)S(=O)(=O)CCN2Cc1ccccc1 | > 50 µM (inactive)
O=C(COc1cccc2ccc(N3CCC(Cc4ccccc4)CC3)nc12)NCc1ccc(F)cc1 | 30.5 µM
CCOC(=O)c1cccc(NC(=O)Nc2cccn3nc(C)nc23)c1 | > 50 µM (inactive)
O=C(O)c1ccccc1C(=O)Nc1ccc(SC(C(=O)Nc2cccc(Cl)c2)c2ccccc2)cc1 (centres undefined) | 33.6 µM
COc1ccc(CCNC(=O)c2c(N)n(-c3cccc(Cl)c3)c3nc4ccccc4nc23)cc1 | > 50 µM (inactive)
Cn1c(=O)/c(=C/c2ccccc2)[nH]c(=O)/c1=C/c1ccccc1 | 22.4 µM
C[C@H](NC(=O)Cc1ccccc1F)c1nc2cc(-c3ccccc3F)ncn2n1 | > 50 µM (inactive)
O=C(Nc1ccc2ccccc2n1)c1ccc(Cl)cc1 | 28.8 µM
Cc1ccc2[nH]c(=O)c(-c3nc4ccc(C)cn4c3NCc3ccc(F)cc3)cc2c1 | 3.37 µM
CN(C(=O)CSc1nnc(-c2cc3ccccc3n2C)o1)c1ccccc1 | > 50 µM (inactive)
COc1ccc(/C=C/c2ccnc3nc(-n4cccc4)nn23)cc1 | > 50 µM (inactive)
COc1ccc(OC)c2c(C)cc(N3CCN(S(=O)(=O)c4ccc5c(c4)CCCN5S(C)(=O)=O)CC3)nc12 | 21.1 µM
Cc1cc(-c2ccnc3c(C#N)cnn23)c(C)s1 | > 50 µM (inactive)
COc1ccc(CCN2COc3c(cc(Cl)c4cccnc34)C2)cc1OC | 21.7 µM

Structure (SMILES) | IC50
COc1ccc(-c2cc3c(=O)n(CC(=O)NCCCN4CCCC4)ncn3n2)cc1 | > 50 µM (inactive)
Cc1ccccc1-c1noc(-c2ccccc2OCC(=O)NC(C)C)n1 | > 50 µM (inactive)
COc1cccc(NC(=O)Nc2ccc3nc4n(c(=O)c3c2)CCCC4)c1 | > 50 µM (inactive)
Cc1cccc(NC(=O)CSc2nnc(-c3n[nH]c4c3CCC4)n2N)c1C | 17.9 µM
CCOc1ccc(-n2c(C)cc(/C=C(\C#N)c3nc4ccccc4[nH]3)c2C)cc1 | > 50 µM (inactive)
O=S(=O)(c1cccc(F)c1)N1CCc2nc3ccccc3n2CC1 | 17.1 µM
O=C(CSc1ccc(-c2cccc([N+](=O)[O-])c2)nn1)Nc1cccc(F)c1 | 25.2 µM
N#Cc1cc(C(=O)c2ccc(Cl)cc2)c[nH]1 | > 50 µM (inactive)
CCc1ccc(NC(=O)Cc2nnc3cc(-c4nc(C)no4)ccn23)cc1 | 29.2 µM
COc1cccc(-n2c(CNCc3cccnc3)nc3ccc([N+](=O)[O-])cc3c2=O)c1 | > 50 µM (inactive)
Cc1ccc(-c2nc(-c3cccs3)cc(C(F)(F)F)c2C#N)cc1 | > 50 µM (inactive)
COc1ccc(-n2nnc(C(=O)Nc3ccc(F)cc3)c2C)cc1 | > 50 µM (inactive)
O=C(COc1ccc(S(=O)(=O)N2CCOCC2)cc1)N1CCC(Cc2ccccc2)CC1 | > 50 µM (inactive)
COc1cccc(NC(=O)CCc2c(C)nn(-c3cc(N4CCCCC4)ncn3)c2C)c1 | > 50 µM (inactive)
Cc1c(-c2nsc(NC(=O)c3ccc(Cl)cc3)n2)nnn1-c1ccccc1F | 18.9 µM
Fc1ccc(Cc2nc(-c3ccc4nncn4c3)no2)cc1 | > 50 µM (inactive)
CNC(=O)c1cc2nc(N(C)C)n(-c3ccccc3)c2s1 | > 50 µM (inactive)
O=C(NCCc1ccccn1)c1cn2ccnc(-c3ccc(F)cc3)c2n1 | > 50 µM (inactive)
Cc1ccc2oc(=O)c(S(=O)(=O)N3CCCCC3)cc2c1 | 43.1 µM
